Assays:
[1] = molecular target: T1, recombinant human β-secretase (rhBACE-1) (Homo sapiens, UniProt P56817); assay: Measurement of 50% inhibition concentration (IC50) of β-secretase (BACE-1) enzyme, fluorescent substrate peptide; assay type: biochemical; conditions: rhBACE-1, pH 4.5, 37° C., 2.5 hr
T1 construct: purchased Invitrogen
Experimental: Compounds were dissolved in 0.1 M sodium acetate buffer (with 150 mM sodium chloride, pH 4.5) and 10% dimethylsulfoxide (DMSO). The solution with no compound was used as a negative control. Then, 15 μL of these solutions (final compound concentration: 0.3, 0.9, 3.0, 9.0, and 30.0 μM), 1 unit/mL of recombinant human β-secretase (rhBACE-1, Invitrogen), and 15 μL of the fluorescent substrate peptide were mixed in a black 384-well microtiter plate (Coaster). After mixtures were incubated in the dark at 37° C. for 2.5 hr, the fluorescence intensities of the mixtures were measured by fluorescence microplate reader (Wallac) at 545 nm for excitation and at 590 nm for emission. The inhibition ratio of each compound was calculated using the intensity of the solution without any compound as a negative control. The sequence of the peptide was Ser-Glu-Val-Asn-Leu-Asp-Ala-Glu-Lys-Arg, and labeled with fluorescent donor (Cy3) at Ser-1 and with quencher (Cy5Q) at Lys-9, respectively (Invitrogen) Inhibitory activities of each compound are shown in FIG. 1.

[2] = test system: Aβ-40 and Aβ-42 production; assay: Inhibitory effect on Aβ-40 and Aβ-42 production in rat primary cultured cell (Aβ ELISA of culture medium); assay type: cell-based; conditions: 72 hr, rat cerebral cortex primary culture
Experimental: Cerebral cortex was obtained from 19-20 day-old embryonic Wistar rat. The tissue was minced, dissociated using scalpel blades and Pasteur pipette in Hunks buffered solution, and centrifuged at 100 rpm. Precipitated cells were filtered using […] cell strainer, and single cells were prepared. These cells were suspended in Eagle's Minimum Essential Medium (EMEM) containing 10% Fetal bovine serum, and plated into 48-well tissue culture plates (Becton Dickinson) at 200 μL/well and 1.7×10^5 cells/cm^2. Cultures were incubated at 37° C. in a humidified atmosphere of 5% CO2. After 3, 5, and 7 days in culture, the medium was replaced, and after 9 days, CU532 was dissolved in DMSO and diluted in culture media so that the final concentration of DMSO in culture media was 0.1%, and each solution was added to each well at […] for 72 hr. The control solution contained 0.1% DMSO.
After 72 hr, Aβ-40 and Aβ-42 in culture media were measured using by Aβ ELISA kit (Wako). 100 μL of the culture medium and standard diluents were added to the antibody-coated plate, and incubated at 4° C. over night. Then the plate was washed by wash buffer 5 times and 100 μL of HRP-labeled detection antibody solution was added to the plate. After 1 hour, the plate was washed 5 times, and TMB chromogenic reagent was added to the plate. After 30 minute, stop solution was added and absorbance at 450 nm of the solution was measured by microplate reader (BIORAD). The concentration of Aβ in culture medium was calculated from the standard curve.

T1 sequence (P56817 46-501): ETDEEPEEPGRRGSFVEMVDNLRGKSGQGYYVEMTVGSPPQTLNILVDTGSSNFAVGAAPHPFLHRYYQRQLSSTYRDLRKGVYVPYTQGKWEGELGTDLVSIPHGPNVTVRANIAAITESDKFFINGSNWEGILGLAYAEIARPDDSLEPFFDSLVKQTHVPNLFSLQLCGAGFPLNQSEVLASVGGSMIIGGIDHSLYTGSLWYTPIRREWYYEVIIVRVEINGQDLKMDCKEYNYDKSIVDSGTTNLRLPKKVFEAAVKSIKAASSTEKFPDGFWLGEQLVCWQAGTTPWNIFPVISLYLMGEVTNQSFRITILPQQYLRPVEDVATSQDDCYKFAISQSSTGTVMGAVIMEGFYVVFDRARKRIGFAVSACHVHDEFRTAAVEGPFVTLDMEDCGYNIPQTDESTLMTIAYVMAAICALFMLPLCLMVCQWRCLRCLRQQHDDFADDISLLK

| SMILES | IC50 [1] [µM] | melting point [°C] | further results |
| --- | --- | --- | --- |
| COc1cc(/C=C/C(=O)CC(=O)/C=C/c2ccc(O)cc2)ccc1[N+](=O)[O-] [CU050, (1E,6E)-1-(4-hydroxyphenyl)-7-(3-methoxy-4-nitrophenyl)hepta-1,6-diene-3,5-dione] | 16 | 190 to 192 | – |
| O=C(/C=C/c1ccc(O)cc1)CC(=O)/C=C/c1cc(O)ccc1[N+](=O)[O-] [CU131, (1E,6E)-1-(5-hydroxy-2-nitrophenyl)-7-(4-hydroxyphenyl)hepta-1,6-diene-3,5-dione] | 0.91 | 187 to 194 | – |
| O=C(/C=C/c1ccc(O)cc1)CC(=O)/C=C/c1cc(OCc2ccccc2)ccc1[N+](=O)[O-] [CU475, (1E,6E)-1-(5-benzyloxy-2-nitrophenyl)-7-(4-hydroxyphenyl)hepta-1,6-diene-3,5-dione] | 0.74 | 168 to 172 | – |
| COc1ccc([N+](=O)[O-])c(/C=C/C(=O)CC(=O)/C=C/c2ccc(O)cc2)c1 [CU481, (1E,6E)-1-(4-hydroxyphenyl)-7-(5-methoxy-2-nitrophenyl)hepta-1,6-diene-3,5-dione] | 1.2 | 151 to 155 | – |
| Nc1ccc(O)cc1/C=C/C(=O)CC(=O)/C=C/c1ccc(O)cc1 [CU488, (1E,6E)-1-(2-amino-5-hydroxyphenyl)-7-(4-hydroxyphenyl)hepta-1,6-diene-3,5-dione] | 7.3 | 186 to 192 | – |
| Nc1ccc(OCc2ccccc2)cc1/C=C/C(=O)CC(=O)/C=C/c1ccc(O)cc1 [CU489, (1E,6E)-1-(2-amino-5-benzyloxyphenyl)-7-(4-hydroxyphenyl)hepta-1,6-diene-3,5-dione] | 5.6 | 175 to 179 | – |
| O=C(/C=C/c1ccc(O)cc1)CC(=O)/C=C/c1cc(O)ccc1Br [CU532, (1E,6E)-1-(2-bromo-5-hydroxyphenyl)-7-(4-hydroxyphenyl)hepta-1,6-diene-3,5-dione] | – | 182 to 186 | amount of Aβ-42 in culture medium ([2]; at 0.3 μM): significantly decreased; amount of Aβ-40 in culture medium ([2]; at 1 μM): significantly decreased |
| CCOC(=O)Cn1nncc1-c1ccccc1/C=C/C(=O)CC(=O)/C=C/c1ccc(O)cc1 [CU647, (1E,6E)-1-[2-(1-ethoxycarbonylmethyl-1H-1,2,3-triazol-5-yl)phenyl]-7-(4-hydroxyphenyl)hepta-1,6-diene-3,5-dione] | – | 169 to 174 | – |
| COCOc1ccc([N+](=O)[O-])c(/C=C/C(=O)CC(=O)/C=C/c2ccc(O)cc2)c1 [CU649, (1E,6E)-1-(4-hydroxyphenyl)-7-[5-(methoxymethoxy)-2-nitrophenyl]hepta-1,6-diene-3,5-dione] | – | 175 to 180 | – |
| [N-]=[N+]=Nc1ccccc1/C=C/C(=O)CC(=O)/C=C/c1ccc(O)cc1 [CU651, (1E,6E)-1-(2-azidophenyl)-7-(4-hydroxyphenyl)hepta-1,6-diene-3,5-dione] | – | 153 to 161 | – |
| COc1cc(/C=C/C(=O)CC(=O)/C=C/c2ccc(O)c(OC)c2)ccc1O [curcumin, reference compound] | – | – | inhibitory effect on Aβ production [2]: no inhibitory effect |

Further lines, with some results ahead:

| IC50 [1] [µM] | melting point [°C] | SMILES | further results |
| --- | --- | --- | --- |
| – | 215 to 218 | COc1cc(/C=C/C(=O)CC(=O)/C=C/c2ccc(O)cc2)c(Br)c(Br)c1O [CU652, (1E,6E)-1-(2,3-dibromo-4-hydroxy-5-methoxyphenyl)-7-(4-hydroxyphenyl)hepta-1,6-diene-3,5-dione] | – |
| – | 196 to 205 | O=C(/C=C/c1ccc(O)cc1)CC(=O)/C=C/c1ccc(O)cc1Br [CU671, (1E,6E)-1-(2-bromo-4-hydroxyphenyl)-7-(4-hydroxyphenyl)hepta-1,6-diene-3,5-dione] | – |
| – | 119 to 128 | O=C(/C=C/c1ccc(O)cc1)CC(=O)/C=C/c1ccccc1C=Cc1ccccc1 [CU672, (1E,6E)-1-(4-hydroxyphenyl)-7-(2-styrylphenyl)hepta-1,6-diene-3,5-dione] | – |
| – | 238 to 248 | O=C(/C=C/c1ccc(O)cc1)CC(=O)/C=C/c1ccc(N2CCCCC2)cc1Br [CU1090, (1E,6E)-1-[2-bromo-4-(piperidin-1-yl)phenyl]-7-(4-hydroxyphenyl)hepta-1,6-diene-3,5-dione] | – |
| – | 155 to 161 | O=C(/C=C/c1ccc(O)cc1)CC(=O)/C=C/c1ccc(N2CCC(Cc3ccccc3)CC2)cc1Br [CU1091, (1E,6E)-1-[4-(4-benzylpiperidin-1-yl)-2-bromophenyl]-7-(4-hydroxyphenyl)hepta-1,6-diene-3,5-dione] | – |
| – | 195 to 204 | O=C(/C=C/c1ccc(O)cc1)CC(=O)/C=C/c1ccc(N2CCN(c3ccccc3)CC2)cc1Br [CU1095, (1E,6E)-1-[2-bromo-4-(4-phenylpiperazin-1-yl)phenyl]-7-(4-hydroxyphenyl)hepta-1,6-diene-3,5-dione] | – |

Source: patent US8552220B2, “Therapeutic agent for Alzheimer's disease” (Tokyo Institute of Technology, priority 2008, dated 2013)
